The structures appear in SMILES notation.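 Compound exposure: 48 hours, 5 concentrations, 96-well plates. Here, GI50 denotes the concentration required for 50% inhibition of growth. TGI denotes the concentration required for complete inhibition of growth.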 Bounds are passed on as bounds.

Holding throughout (test): growth of human tumour cells (NCI), 48 h
In test [1] the test system is HOP-62 NSCLC.
Test [2] relates to SK-MEL-5 melanoma.
Test [3] deals with IGROV1 ovarian.
The test system of test [4] is SNB-19 CNS.
Test [5] deals with NCI-H522 lung.
Test [6] has as its system UACC-257 melanoma.
The subject of test [7] is A549 NSCLC.
Test [8] relates to SF-268 CNS.
In test [9] the test system is KM12 colon.

Regarding `O=C(c1ccccc1)C1OC12C(=O)Nc1ccccc12` (centres undefined), the TGI in test [1] was more than 100 µM; in test [2] it was 47.3 µM; in test [3], more than 100 µM; in test [4], more than 100 µM; in test [5] it was 28.2 µM; in [6], more than 100 µM. Moreover, the TGI in [7] and in test [8] was more than 100 µM throughout.

As to `Cc1c(C(=O)/C=C/c2ccccc2)[n+](=O)c2ccccc2n1[O-]`, the TGI in [1] is 37.9 µM; in test [9], 29.9 µM; in test [3], 45.2 µM; in test [4], 31.8 µM; in [5], 19.4 µM; in [6] it was 31.3 µM. The TGI stood at 43.2 µM in test [7] and 40.1 µM in [8].

In the case of `C1C[OH+]CC[OH+]CC[OH+]CC[OH+]CC[OH+]1.[Cl-].[V]`, the GI50 in [9] was 26.9 µM; in test [2] it was 7.48 µM; in [3] it was 42.7 µM; in test [4] it was 43.5 µM; in test [5] it was more than 100 µM; in [6], 29.3 µM. The GI50 in [7] is 61.1 µM; in [8], 73.2 µM. In addition, the TGI is more than 100 µM in test [9]; 26.6 µM in [2]; more than 100 µM in test [3]; more than 100 µM in [4]; more than 100 µM in test [5]; more than 100 µM in [6]. Further, the TGI in test [7] and in test [8] was more than 100 µM in each case.

Turning to `C/C(CC(=O)NCCc1ccccc1)=N\NC(=O)C[n+]1ccccc1`, the TGI in [1], in test [9], in test [2], in [3], in [5] and in test [6] was more than 100 µM in each case. The TGI in [7] and in test [8] was more than 100 µM throughout.

For the molecule `CSC(C1c2ccccc2N(c2ccc(C)cc2)c2[nH]c(=O)n(C)c(=O)c21)S(=O)(=O)c1ccc(C)cc1` (centres undefined), the TGI in test [1], in test [2], in test [3], in test [4], in [5] and in [6] was more than 100 µM in each case. In addition, the TGI in [7] and in test [8] was more than 100 µM in each case.

On to `N#Cc1cccnc1Cl`, for which the TGI was more than 31.6 µM in test [1]; more than 100 µM in test [9]; more than 100 µM in [2]; more than 100 µM in test [3]; more than 100 µM in test [4]; more than 100 µM in test [5]. The TGI in test [6], in test [7] and in test [8] was more than 100 µM each time.

Turning to `CCOC(=O)c1ccc(C)c(N=NN(C)C)c1`, the TGI in test [1], in test [9], in test [2], in test [3], in [4] and in test [5] was more than 100 µM throughout. The TGI in test [6], in [7] and in test [8] was more than 100 µM in each case.

For the molecule `O=C(Nc1c(Cl)cc([N+](=O)[O-])cc1Cl)C(=O)C(C1OC(=O)c2ccccc21)[N+](=O)[O-]` (centres undefined), the TGI in test [1], in test [9], in test [2], in test [3], in test [4] and in test [6] was more than 100 µM in each case. In addition, the TGI in [7] and in test [8] was more than 100 µM each time.

With `N#CC1CC2(C1)OCCS2` (centres undefined), the TGI in test [1], in test [9], in [3], in test [4], in test [5] and in [6] was more than 100 µM each time. In addition, the TGI in test [7] and in [8] was more than 100 µM each time.

As to `O=C1/C(=C/c2cccc([N+](=O)[O-])c2)COc2ccc(Br)cc21`, the TGI in test [1], in test [9], in test [2], in test [3], in [5] and in test [6] was more than 100 µM throughout. For the same molecule, the TGI in [7] and in [8] was more than 100 µM throughout.

Regarding `O=C(NCO)NCOCn1c(=O)n(CO)c(=O)n(CO)c1=O`, the TGI in test [1] was more than 100 µM; in [9], more than 62.8 µM; in test [2] it was more than 83 µM; in [3], more than 100 µM; in test [4], more than 31.6 µM; in [6] it was 99.4 µM. The TGI in test [7] was more than 100 µM; in test [8], more than 80.8 µM.

On to `O=C1NC2OC(C(O)CO)C(O)C2O1` (centres undefined), for which the TGI in test [9], in [2], in [3], in test [4], in [5] and in [6] was more than 100 µM throughout. The TGI in test [7] and in test [8] was more than 100 µM throughout.

As to `C=CC/C=C/C/C=C/CCCCCCCc1cccc(O)c1C(=O)O`, the TGI in test [1] was 67.5 µM; in test [9] it was more than 100 µM; in [3], more than 100 µM; in [4], more than 100 µM; in test [5], more than 100 µM; in test [6], more than 100 µM. The TGI is more than 100 µM in test [7] and 80.8 µM in [8].

`CC(C)(C)c1cc(C(O)(C(F)(F)F)C(F)(F)F)c2c(c1)C(C(F)(F)F)(C(F)(F)F)OC(C(C)(C)C)N2` (centres undefined): the TGI in test [9] was determined as 14 µM; in test [2], 3.6 µM; in test [3] it was 18 µM; in [4], 19.3 µM; in test [5], 7.39 µM; in test [6], 9.48 µM. For the same molecule, in test [7], the TGI is 13.6 µM.

Consider `CCOC(=O)NC(=O)c1cn(CCCOC(=O)CCCCCCCCCCC(=O)OCCCn2cc(C(=O)NC(=O)OCC)c(=O)[nH]c2=O)c(=O)[nH]c1=O`, for which the TGI in test [1], in test [9], in test [2], in test [3], in test [4] and in test [6] was more than 100 µM throughout. Also, the TGI in [7] and in test [8] was more than 100 µM each time.
